# Results reported in ChEMBL document CHEMBL1121864, “Diterpenoid sweeteners. Synthesis and sensory evaluation of stevioside analogues nondegradable to steviol” (J Med Chem, 1981).
# Test: Acute toxicity in mice after oral administration
# Conditions: mouse, in vivo
smiles,measurement,setting,value
C=C1C[C@@]23CC[C@H]4[C@@](C)(CCC[C@@]4(C)C(=O)O[C@@H]4O[C@H](CO)[C@@H](O)[C@H](O)[C@H]4O)[C@@H]2CC[C@]1(O[C@@H]1O[C@H](CO)[C@@H](O)[C@H](O)[C@H]1O[C@@H]1O[C@H](CO)[C@@H](O)[C@H](O)[C@H]1O)C3 [STEVIOSIDE],LD50,,> 8200 mg/kg
same,LD50,read-out: LD50,> 15000 mg/kg
